For one experiment, the target named is rat PDE10 enzyme (Rattus norvegicus (Rat), UniProt Q9QYJ6). Briefly: PDE10 scintillation proximity assay (SPA), inhibition of rat PDE10 enzyme activity. The format is biochemical. Particulars: geometric mean of 2-4 determinations unless otherwise indicated (b: ≧5 determinations; c: single determination). Summed up: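 SPA with fixed recombinant PDE10 (Sf21-expressed, Ni-NTA and Mono Q purified) converting ~20% of 20 nM ³H-cAMP in 50 mM TRIS pH 7.5, 1.3 mM MgCl2, 0.01% Brij, across an inhibitor range.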
For orientation: SPA uses beads or plates that emit light when radiolabelled molecules are held near them.

The target in experiment [1] is human recombinant PDE10 enzyme (PDE10A) (Homo sapiens, UniProt Q9Y233). Briefly: PDE10 scintillation proximity assay (SPA), inhibition of human recombinant PDE10 enzyme activity. Particulars: geometric mean of 2-4 determinations unless otherwise indicated (b: ≧5 determinations; c: single determination). The format is biochemical. The gist of the method:
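His6-tagged human PDE10A (aa 21–797) was expressed in insect cells and purified by Ni-NTA and size exclusion. The enzyme, at a level converting about 20% of 20 nM ^3H-cAMP, was incubated 30 min at 25°C in 50 mM Tris pH 7.5, 1.3 mM MgCl2, 0.01% Brij with inhibitors. The reaction was stopped with yttrium silicate SPA beads, read by scintillation, and IC50 determined.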

Sequence of rat PDE10 enzyme (Q9QYJ6 24-794): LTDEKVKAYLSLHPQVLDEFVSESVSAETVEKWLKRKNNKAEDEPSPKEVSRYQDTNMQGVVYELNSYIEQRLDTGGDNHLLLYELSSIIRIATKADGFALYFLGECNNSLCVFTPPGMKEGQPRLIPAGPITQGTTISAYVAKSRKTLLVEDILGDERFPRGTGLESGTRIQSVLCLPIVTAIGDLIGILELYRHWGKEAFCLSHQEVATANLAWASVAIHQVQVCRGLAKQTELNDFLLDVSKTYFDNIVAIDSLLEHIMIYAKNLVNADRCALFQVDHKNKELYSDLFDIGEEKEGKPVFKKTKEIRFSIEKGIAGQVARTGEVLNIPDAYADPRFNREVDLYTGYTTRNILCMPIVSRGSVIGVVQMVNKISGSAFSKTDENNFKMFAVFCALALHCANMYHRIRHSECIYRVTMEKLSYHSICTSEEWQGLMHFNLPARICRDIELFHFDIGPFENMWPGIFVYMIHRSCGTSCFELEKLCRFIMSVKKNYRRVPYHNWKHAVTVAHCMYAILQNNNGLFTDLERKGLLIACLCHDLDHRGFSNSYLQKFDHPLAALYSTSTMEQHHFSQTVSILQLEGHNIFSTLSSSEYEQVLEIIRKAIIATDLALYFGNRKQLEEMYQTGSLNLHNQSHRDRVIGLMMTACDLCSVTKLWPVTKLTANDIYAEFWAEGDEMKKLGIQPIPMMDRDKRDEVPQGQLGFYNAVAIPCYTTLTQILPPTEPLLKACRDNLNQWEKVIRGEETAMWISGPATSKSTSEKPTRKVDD

One may read the IC50 as the midpoint of a concentration-inhibition curve. Take `CCc1nc(C)nc2c1CN(c1ncnn3c(C)nc(-c4ccccc4F)c13)CC2` [Example 131, 4-ethyl-6-[5-(2-fluorophenyl)-7-methylimidazo[5,1-f][1,2,4]triazin-4-yl]-2-methyl-5,6,7,8-tetrahydropyrido[4,3-d]pyrimidine]: the IC50 came to 0.456 nM at rat PDE10 enzyme and 0.573 nM in experiment [1].

With `Cc1nc([C@@H]2CCOC2)c2c(N3CCc4cccnc4C3)ncnn12` [Example 3, 7-{7-Methyl-5-[(3S)-tetrahydrofuran-3-yl]imidazo[5,1-f][1,2,4]triazin-4-yl}-5,6,7,8-tetrahydro-1,7-naphthyridine], the IC50 on rat PDE10 enzyme is 0.607 nM; in experiment [1], 0.785 nM.

For the molecule `Cc1nc(-c2ccccc2F)c2c(N3CCc4cnn(C5CC5)c4C3)ncnn12` [Example 156, 4-(1-cyclopropyl-1,4,5,7-tetrahydro-6H-pyrazolo[3,4-c]pyridin-6-yl)-5-(2-fluorophenyl)-7-methylimidazo[5,1-f][1,2,4]triazine], the 50% inhibitory concentration (IC50) on rat PDE10 enzyme came to 0.905 nM; in experiment [1], 1 nM.
